The values below come from a melting point compilation (Tetko et al.; mined from patent text by program, amines drawn as free bases though some values may be those of a salt).

Residues, ends and D or L forms follow the SMILES beside them.

Compound `O=C(Nc1ccc(Cl)cc1)O[C@H]1COC(c2ccccc2)=N[C@@H]1c1ccccc1` (racemic) yielded a melting point of 200 °C. As for `CCOCc1nc2c(N)nc3cc(-c4ccc(F)nc4)cnc3c2n1CC(C)(C)O`, the melting point was in the range of 218 to 220 °C. As for `COc1ccc(C=CC(=O)C=Cc2ccc(OC)c(OC)c2)cc1OC`, the melting point was in the range of 68 to 70 °C. `N#Cc1cccc(NC(=O)c2ccn(-c3ccc(Cl)cc3)c2)c1N1CCC(N2CCOCC2)CC1` showed a melting point of 220 °C.

In turn, `O=C1CCc2cc(C(O)c3ccccc3)ccc2N1` (stereo unspecified) had a melting point of 175 °C. In the case of `CSCCOC(=O)N(C)c1nnc(-c2cccnc2)s1` it was 126 to 128 °C; in that of `CN(C)c1ccc(N(C)C(=O)Cn2c(-c3ccc(Cl)cc3)nc3cccnc32)cc1`, 152 to 155 °C; in that of `CC1OC(n2c(Cl)c(C#N)c3cc(Cl)c(Cl)cc32)C(O)C1O` (stereo unspecified), 227 to 228 °C.

The compound `CCOC(=O)c1cn(CCCO)c(=O)c2cc(Cl)ccc12` came in with a melting point of 193 °C. Next, `NC(=O)CCC(C(=O)O)N1C(=O)c2cccc([N+](=O)[O-])c2C1=O` (stereo unspecified): 182 to 184 °C; `COC(=O)c1csc(NC(=O)c2ccc(C#N)cc2)n1`: 228 °C; `CC(C)(C)NC(=S)Nc1cc(F)cc(F)c1`: 140 to 142 °C. Next, `CC(C)N1C(=O)[C@@H](CCCC(=O)O)O[C@H](c2ccccc2Cl)c2cc(Cl)ccc21` (relative stereo): 158 to 160 °C; `O=C(O)CCCCCCCCCCCCCCCBr`: 67 to 69 °C; `CCON=C(C(C)=NO)c1ccc(OC(C)c2ccc(Cl)cc2)cc1` (stereo unspecified): 132 to 134 °C. The compound `O=C(Nc1ccc(I)cc1)N[C@H]1C[C@H](C(=O)O)Nc2cc(Cl)cc(Cl)c21` (relative stereo) returned a melting point of 224 to 226 °C.

With `COC(=O)c1ccc(CNC(=O)c2[nH]c(-c3cccs3)cc2-c2ccc(F)cc2)cn1`, the melting point lay within 174 to 175 °C. Next, `Clc1ccc(Cn2ccc3cc(OCc4ccncc4)ccc32)cc1`: 105 to 107 °C.

Regarding `COC(=O)C(=O)c1nccn1Cc1cccs1`, the melting point is 72.5 to 74.5 °C. In the case of `CS(=O)(=O)Nc1ccc(NC(=O)C(=O)O)cc1` it was > 260 °C; in that of `CC(C)c1csc(/C=C/c2cccc(NC(=O)Cc3ccccc3C(=O)O)c2)n1`, 203 to 204 °C; in that of `O=C(NCc1ccc2c(c1)OCO2)c1ccc(C(=O)NCc2ccc3c(c2)OCO3)s1`, 207 to 209 °C. Regarding `O=C(Nc1ccc(N2CCCC2)cc1)N(C[C@H]1CC[C@H](CN(C(=O)Nc2ccc(N3CCCC3)cc2)C2CCCCCC2)CC1)C1CCCCCC1`, the melting point was 152 to 155 °C. Next, `O=C(O)COc1cccc(COC(=O)N(c2ccccc2)c2ccccc2)c1`: 142 to 144 °C; `COC(=O)C(C)(N)Cc1c[nH]c2ccc(Br)cc12` (racemic): 181 °C; `O=C(O)Cc1ccc(S(=O)(=O)c2ccc(Cl)cc2)cc1`: 153 to 157 °C. Regarding `O=C1OC(c2ccccc2)CN1Sc1ccc(Cl)cc1` (stereo unspecified), the melting point is 98 to 99 °C. Next, `COc1ccc(-c2cc(=O)n(CCc3ccc(OC)c(OC)c3)nc2-c2ccc(OC)cc2)cc1`: 131 °C; `Cc1c(Cl)c(Cl)c(Cl)c(CCl)c1Cl`: 88 to 89 °C; `COc1ccc(-c2ccc(N)nn2)cc1OCC(C)C`: 187 °C.

Regarding `CC(C)c1noc2c1C(=O)N(C(C)(C)C)C2=O`, the melting point was 60 to 62 °C. Next, `CCCCC(=O)c1ccc(O)c(Cl)c1Cl`: 107 to 110 °C; `CCCS(=O)(=O)c1ccc2c(c1)C(=O)CC2`: 100 °C; `C=CCn1c(=O)[nH]c2ccccc2c1=N`: 223 to 224 °C. In the case of `Cc1cc2c(cc1Cl)C=C(C(=O)O)C(C(F)(F)F)O2` (stereo unspecified), the melting point is 208 to 209 °C. In the case of `CC(C)[C@]1(c2ccccc2OCC#CCCl)Sc2ccccc2N(C)C1=O` it was 136 °C; in that of `CC(=O)CCc1ccc(C(=O)Nc2ccc3cc(CN4CCCC4)cnc3c2C)cc1`, 106 to 108 °C. In the case of `Cc1ccc2c(c1)-n1ccc3c1=C(CCC=3)c1nccn1-2` it was 175 °C. In the case of `CC(=O)CCN1c2ccccc2NC(=O)C1C` (racemic) it was 108 to 109 °C; in that of `COc1c(O)cnc(C)c1C`, 274 to 276 °C; in that of `N#CNC(=O)C=NNc1ccc(F)cc1`, 265 to 267 °C. The compound `CCC(CC)c1ccc(Cl)c2nc3n(c12)CC(=O)N3c1cnc(N(C)C)cc1C` displayed a melting point of 222 to 224 °C. Next, `CN(C)C(=O)Nc1cccc(C#N)n1`: 125 °C; `Cc1sc(S(C)(=O)=O)nc1-c1ccccc1`: 114 to 115 °C; `O=Cc1c(O)c(Cl)cc(Cl)c1OCCCCC(=O)O`: 85 to 87 °C.

Compound `NS(=O)(=O)c1cc(C(=O)O)cc(NCc2ccccc2)c1-c1ccccc1` returned a melting point of 221 to 222 °C. In the case of `COc1cc(I)c(Cl)cc1C(=O)N1Cc2cccn2Cc2ccccc21` it was 92 to 98 °C.

In turn, `CNC(=O)N(O)C(C)c1ccc(C)c(Br)c1` (stereo unspecified) showed a melting point of 107 to 108 °C.

In the case of `O=C1c2ccc([N+](=O)[O-])cc2C(=O)c2c(O)ccc(O)c21`, the melting point was 226 to 228 °C.

The compound `N#Cc1ccc(NC(=O)Nc2cccc(C#N)c2)cc1` registered a melting point of 183 to 185 °C.

`CCOCCOc1c(Cl)c(Sc2ccccc2N)c(OCCOCC)c2c1C(=N)NC2=N` gave a melting point of 114 to 116 °C. Next, `O=C(NCC(F)F)/C(=C/c1ccc(OC(F)(F)F)cc1)NC(=O)c1ccc(OCCC(F)(F)F)cc1`: 142 to 143 °C; `CC(C)(C)c1cc2c(c(-c3nc4ncccc4o3)c1)CCC2`: 198 to 200 °C.

Compound `CCc1ccc(C(=O)C2=C(O)C(=O)N(c3ccc(C)nn3)C2c2ccc(OC(F)(F)F)cc2)cc1` (stereo unspecified) displayed a melting point of 263 to 267 °C. `CC(C)(C)c1cc(CCc2ccccc2NC(=O)NC2CCCc3ccccc32)cc(C(C)(C)C)c1O` (stereo unspecified) came in with a melting point of 168 to 169 °C. In turn, `CC(C)(C)OC(=O)NCc1cc(C(C)(C)C)cc(Cl)c1O` came in with a melting point of 161 to 163 °C. Next, `N#Cc1cnc(-c2ccccc2OCC2CC2)[nH]c1=O`: 188 to 190 °C; `COC(=O)[C@H]1O[C@@H](n2cnc3c(Cl)ncnc32)[C@H](OC(C)=O)[C@@H]1N=[N+]=[N-]`: 94 to 96 °C. In the case of `C[C@H]([C@](O)(Cn1cncn1)c1ccc(F)cc1F)S(=O)(=O)CC(N)=O` it was 184 to 185 °C; in that of `OCc1cccc2c1CCc1ccccc1-2`, 108 to 110 °C. Next, `CCOC(=O)C(C)Oc1ccc(N(C)c2ncnc3cc(Cl)ccc23)cc1` (stereo unspecified): 92 °C. With `CC(CCCNC(=O)CCCCCBr)C(F)(F)F` (stereo unspecified), the melting point is 96 to 98 °C. In the case of `O=C(CBr)c1ccc2nnnn2c1` it was 108 to 110 °C; in that of `Cc1cc(C(O)(C(F)(F)F)C(F)(F)F)cc(C)c1OCC(=O)O`, 118 to 120 °C. Next, `OCc1c(Cl)ccc(C2OCCO2)c1Cl`: 82 to 85 °C; `NCCc1cc(Cl)c(NC(=O)CN2CCN(CCCCC(c3ccc(F)cc3)c3ccc(F)cc3)CC2C(N)=O)c(Cl)c1` (stereo unspecified): 161 °C. Next, `CCOC(=O)Nc1ccc(Cl)c(N)n1`: 66 to 70 °C; `Cc1nc2cc3c(cc2s1)C1(CO3)C(=O)Nc2ccccc21` (stereo unspecified): > 250 °C.

The compound `O=P(c1ccccc1)(c1ccccc1)c1cc(O)ccc1O` had a melting point of 216 to 218 °C. In the case of `CC(C)n1nc(C(=O)C(=O)c2ccccc2)ccc1=O` it was 71 to 73 °C. In the case of `COc1ccccc1-c1cc(NC(=O)[C@H]2CCCNC2)ncn1` it was 163 to 165 °C. Next, `CCC(=O)C(CC(=O)c1ccccc1)C(O)=S` (stereo unspecified): 110 to 112 °C. `O=S(=O)(NCC(O)(Cn1cncn1)c1ccc(Cl)cc1Cl)c1ccc(C(F)(F)F)cc1` (stereo unspecified): the melting point lay in the range of 165 to 166 °C. In the case of `COc1cccc2cc(C3CCN(C)CC3)oc12` it was 74 to 75 °C. Next, `C=Cc1cc(O)cc2nc(-c3ccc(O)c(F)c3)oc12`: 249 to 251 °C. Next, `Oc1ccc(NC2Cc3ccccc3C2)cc1`: 165 to 167 °C; `CCc1nc(C2CC2)c[nH]1`: 104 to 106 °C. The compound `NC(=O)CCC(N)C(=O)NCC(=O)NCC(=O)NC(CO)C(=O)NC(CC(N)=O)C(=O)NC(Cc1ccccc1)C(N)=O` (stereo unspecified) (H-QGGSNF-NH2; configuration not given here) yielded a melting point of 202 to 204 °C. The compound `COc1ccc(C(=O)C=CN(C)C)cc1OC` displayed a melting point of 124 to 125 °C.

As to `CNn1c(C)nc(N2CCc3ccccc3CC2)c(C#N)c1=O`, the melting point is > 200 °C.

Compound `COc1cccc2c1cc(C(=O)O)n2CC(=O)OC(C)(C)C` yielded a melting point of 222 to 224 °C. Next, `N#CCCNC(=O)c1cccc(-c2cc3c(ccn3Cc3ccc(Cl)cc3Cl)cn2)c1`: 199 to 200 °C. In turn, `Cc1ccc(-c2cc(CO)nn2-c2ccc(S(N)(=O)=O)cc2)cc1` had a melting point of 166 to 169 °C.

For the compound `NC(=O)c1c(Cl)c(-c2ccccc2)n2c1CN(S(=O)(=O)Nc1ccc(C(F)(F)F)cc1)CC2`, the melting point was in the range of 209 to 211 °C. Next, `CN(C(=O)c1cc2c(cn1)[nH]c1ccccc12)c1ccccc1`: 237 to 240 °C; `O=C(O)c1cn(C2COC2)c2cc(F)c(F)c(O)c2c1=O`: 273 to 276 °C; `CCOc1ccc(CC2NCCc3cc(OC(C)C)c(OC(C)C)cc32)cc1OCC` (stereo unspecified): 76 to 80 °C. `COC(=O)CS(=O)(=O)Cc1cnc(OC)c([N+](=O)[O-])c1` yielded a melting point of 137 to 140 °C. Next, `Cc1cc(N(C)[C@H]2CN(C(=O)CC#N)CC[C@H]2C)n2ncnc2n1`: 119 °C. Next, `N#Cc1nn(-c2c(Cl)cc(C(F)(F)F)cc2Cl)cc1-c1ccoc1`: 139 °C; `COC(COC(C)=O)C1(O)CCC2C3CCC4=CC(=O)CCC4(C)C3CCC21C` (stereo unspecified): 145 to 147 °C.
